Data reported in US12053456B2, “Pharmaceutical compositions for combination therapy” (GENFIT, priority 2017, dated 2024).

Test system: α-SMA in TGFβ1-induced hHSC
Assay: α-SMA ELISA in TGFβ1-activated human primary hepatic stellate cells (single agents and combination matrix, EOB/EOHSA)
Format: cell-based
Settings: single agent, 1 hour preincubation, TGFβ1 1 ng/ml, 48 hours
Experimental: Serum-deprived HSC were preincubated for 1 hour with Elafibranor (A) or Nitazoxanide (B), or Bezafibrate (C) before the activation with the profibrogenic cytokine TGFβ1 (1 ng/ml). After 48 hours of incubation, the expression of α-SMA was measured by ELISA. The obtained values were transformed into percentage inhibition over TGFβ1 control. Data are presented as mean (triplicates)±standard deviation (SD)]. The curve fitting and the calculation of half maximal inhibitory concentration (IC50) were performed with XLFit software 5.3.1.3.
Combinations were tested in a dose-response matrix format and analyzed according to the excess over Bliss (EOB) additivism model. Dilution series of Elafibranor (row) and Nitazoxanide (column) were prepared, including their respective DMSO controls. The resulting mixes were added to serum-deprived HSC, 1 hour prior to the activation with the profibrogenic cytokine TGFβ1 (1 ng/ml). […] (B) EOB scores were calculated as described in Materials and Methods. […] The total EOB score including all combinations was also calculated. […]
Combinations were tested in a dose-response matrix format and analyzed according to the excess over Bliss (EOB) additivism model. […] Percentage of α-SMA inhibition over the TGFβ1 control for all combination pairs was calculated. EOB scores were calculated as described in Materials and Methods. […]

O=C(Nc1ncc([N+](=O)[O-])s1)c1ccccc1O [TZ, tizoxanide]
antifibrotic activity (α-SMA) in TGFβ-induced hHSC: profile similar to the parent drug
